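Step 1: Grow cells in 96-well plates. Step 2: Expose to compound for 48 hours at 5 concentrations. Step 3: Interpolate endpoints linearly; if unreached, use highest concentration. Definition used: TGI = concentration required for complete inhibition of growth.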
Experiments:
Assay in all cases: growth of human tumour cells (NCI), 48 h
A549 NSCLC = tested on: A549 NSCLC
CCRF-CEM leukemia = tested on: CCRF-CEM leukemia
DMS 273 small cell lung = tested on: DMS 273 small cell lung
EKVX NSCLC = tested on: EKVX NSCLC
HCT-15 colon = tested on: HCT-15 colon
IGROV1 ovarian = tested on: IGROV1 ovarian
KM12 colon = tested on: KM12 colon
M19-MEL melanoma = tested on: M19-MEL melanoma
MOLT-4 leukemia = tested on: MOLT-4 leukemia
NCI-H226 lung = tested on: NCI-H226 lung
NCI-H522 lung = tested on: NCI-H522 lung
SF-268 CNS = tested on: SF-268 CNS
SF-295 CNS = tested on: SF-295 CNS
SF-539 CNS = tested on: SF-539 CNS
SK-MEL-28 melanoma = tested on: SK-MEL-28 melanoma
SNB-78 CNS = tested on: SNB-78 CNS
SW-620 colon = tested on: SW-620 colon
U251 CNS = tested on: U251 CNS
HOP-92 NSCLC = tested on: HOP-92 NSCLC
OVCAR-4 ovarian = tested on: OVCAR-4 ovarian

| Compound | TGI (A549 NSCLC) | TGI (CCRF-CEM leukemia) | TGI (DMS 273 small cell lung) | TGI (EKVX NSCLC) | TGI (HCT-15 colon) | TGI (IGROV1 ovarian) | TGI (KM12 colon) | TGI (M19-MEL melanoma) | TGI (MOLT-4 leukemia) | TGI (NCI-H226 lung) | TGI (NCI-H522 lung) | TGI (SF-268 CNS) | TGI (SF-295 CNS) | TGI (SF-539 CNS) | TGI (SK-MEL-28 melanoma) | TGI (SNB-78 CNS) | TGI (SW-620 colon) | TGI (U251 CNS) | TGI (HOP-92 NSCLC) | TGI (OVCAR-4 ovarian) |
| --- | --- | --- | --- | --- | --- | --- | --- | --- | --- | --- | --- | --- | --- | --- | --- | --- | --- | --- | --- | --- |
| CC1=CC[C@H](C)C(C)(C)C1/C=C/C(C)=C/CC[C@@]1(CO)[C@H](CCCO)/C(=C(/C)C=O)CC[C@]1(C)O (stereo not given in full) | 6.21 µM | 24.9 µM | 13.9 µM | 4.48 µM | 20.4 µM | 24.7 µM | 9.63 µM | 53.3 µM | 20.5 µM | 14.4 µM | 11.3 µM | 25.1 µM | 13.9 µM | 20.8 µM | 23.7 µM | 27.5 µM | 12.5 µM | 12.9 µM |  |  |
| C=C1C(C[C@@H]2O[C@H]3C[C@H]4O[C@@]5(C[C@@H]6O[C@]7(C[C@H](C)[C@@H]8O[C@@H]9CC(C(O)CO)O[C@@H]9C[C@@H]8O7)C[C@H](C)[C@@H]6O5)C[C@H]4O[C@H]3[C@H](C)[C@H]2O)O[C@@H](CC[C@@H]2O[C@@H](CC[C@@]34CC5O[C@H]6C(O[C@H]7CC[C@H](CC(=O)OC)O[C@@H]7[C@@H]6O3)[C@H]5O4)CC2=C)C[C@H]1C (stereo not given in full) | > 0.783 µM | > 1 µM |  | > 1 µM | 0.0209 µM | 0.579 µM |  |  | > 1 µM | 0.0248 µM |  | > 1 µM |  |  | > 1 µM |  | > 1 µM | > 1 µM | > 1 µM | > 1 µM |
| COc1cccc(NC(=O)N/C(=C/c2ccc(N(CCC#N)CCC#N)cc2)NC(=O)c2cc([N+](=O)[O-])ccc2Cl)c1 | > 100 µM | > 100 µM | > 100 µM | > 100 µM | > 100 µM | > 100 µM | > 100 µM | > 100 µM | > 100 µM | > 100 µM | > 100 µM | > 100 µM | > 100 µM | > 100 µM | > 100 µM | > 100 µM |  | > 100 µM | > 100 µM | > 100 µM |
| O=S(=O)(O)c1ccc(N=Nc2ccc(N=Nc3ccc(/C=C/c4ccc(N=[N+]([O-])c5ccc(/C=C/c6ccc(N=Nc7ccc(N=Nc8ccc(S(=O)(=O)O)cc8)c8ccccc78)cc6S(=O)(=O)O)c(S(=O)(=O)O)c5)cc4S(=O)(=O)O)c(S(=O)(=O)O)c3)c3ccccc23)cc1 | > 100 µM | > 100 µM | > 100 µM | > 100 µM | > 100 µM | > 100 µM | > 100 µM | > 100 µM | > 100 µM | > 100 µM | 99.7 µM | > 100 µM | > 100 µM | > 100 µM | > 100 µM | > 100 µM | > 100 µM | > 100 µM | > 100 µM | > 100 µM |

Reference: PubChem BioAssay (NCI)
